From patent publication US20210299098A1, “SELECTIVE ESTROGEN RECEPTOR MODULATOR FOR TREATMENT OF PANCREATIC CANCER” (CIPLA LIMITED, priority 2020, published 2021)

Experiments:
[1] = used as oral contraceptive; cited from earlier work
[2] = system: Miapaca2 pancreatic cancer cell line; assay: CellTiter-Blue cell viability assay, Miapaca2; type: cell-based; conditions: Homo sapiens, MIA PaCa-2; Miapaca1 cell line as printed; 96 hours treatment
Protocol: (§1) The in vitro anti-tumor activity of levormeloxifene or its pharmaceutically acceptable salt was evaluated in six human pancreatic cancer cell lines: AsPc 1 (A), BxPC3 (B), Miapaca2 (C), Panc 10.05 (D), SW1990 (E) and Panc 1 (F). AsPc 1 (A), BxPC3 (B), Miapaca2 (C), Panc 10.05 (D), SW1990 (E) and Panc 1 (F) were established at Oncotest from the corresponding human patient derived xenograft. CAPAN-2, HUP-T3 and PA-TU-8902 were purchased from DSMZ (Braunschweig, Germany). PANC-1 was purchased from CLS Cell Line Services GmbH (Eppelheim, Germany). BxPC-3, HPAC and MIA-Pa-Ca-2 were purchased from ATCC (Rockville, Md., USA). Authenticity of cell lines was confirmed at the DSMZ by STR (short tandem repeat) analysis, a PCR based DNA-fingerprinting methodology. Cell lines were routinely passaged once or twice weekly and maintained in culture for up to 20 passages. […] Briefly, cells were harvested from exponential phase cultures, counted and plated in 96-well flat-bottom microtiter plates at a cell density of 6,000-20,000 cells/well depending on the cell line's growth rate. […] Following an incubation period of up to four hours, fluorescence (FU) was measured by using the Enspire Multimode Plate Reader (excitation λ=531 nm, emission λ=615 nm). […]

[3] = system: Panc 10.05 pancreatic cancer cell line; assay: CellTiter-Blue cell viability assay, Panc10.05; type: cell-based; conditions: Homo sapiens, Panc1005; Panc10.05 cell line; 96 hours treatment
Protocol: as §1

[4] = system: Panc 1 pancreatic cancer cell line; assay: CellTiter-Blue cell viability assay, Panc1; type: cell-based; conditions: Homo sapiens, 96 hours treatment
Protocol: as §1

[5] = system: BxPC3 pancreatic cancer cell line; assay: CellTiter-Blue cell viability assay, BxPC3; type: cell-based; conditions: Homo sapiens, BXPC-3, 96 hours treatment
Protocol: as §1

[6] = system: AsPc 1 pancreatic cancer cell line; assay: CellTiter-Blue cell viability assay, AsPC1; type: cell-based; conditions: Homo sapiens, 96 hours treatment
Protocol: as §1

[7] = system: SW1990 pancreatic cancer cell line; assay: CellTiter-Blue cell viability assay, SW1990; type: cell-based; conditions: Homo sapiens, 96 hours treatment
Protocol: as §1

HPAC cell line = assay: CellTiter-Blue cell viability assay, HPAC; type: cell-based; conditions: Homo sapiens, most resistant cell line, read-out: individual IC50
Source text: as §1, with “AsPc” for “The in vitro anti-tumor activity of levormeloxifene or its pharmaceutically acceptable salt was evaluated in six human pancreatic cancer cell lines: AsPc 1 (A), BxPC3 (B), Miapaca2 (C), Panc 10.05 (D), SW1990 (E) and Panc 1 (F). AsPc”, “passages. All cells were grown at 37° C. in a humidified atmosphere with 5% CO2 in RPMI 1640 medium (25 mM HEPES, with L-glutamine, #FG1385, Biochrom, Berlin, Germany) supplemented with 10% (v/v) fetal calf serum (Sigma, Taufkirchen, Germany) and 0.1 mg/mL gentamicin (Life Technologies, Karlsruhe, Germany).” for “passages.”

PA-TU-8902 cell line = assay: CellTiter-Blue cell viability assay, PA-TU-8902; type: cell-based; conditions: Homo sapiens, PaTu 8902; PA-TU-8902, text value; read-out: individual IC50
Source text: as §1, with “AsPc” for “The in vitro anti-tumor activity of levormeloxifene or its pharmaceutically acceptable salt was evaluated in six human pancreatic cancer cell lines: AsPc 1 (A), BxPC3 (B), Miapaca2 (C), Panc 10.05 (D), SW1990 (E) and Panc 1 (F). AsPc”, “passages. All cells were grown at 37° C. in a humidified atmosphere with 5% CO2 in RPMI 1640 medium (25 mM HEPES, with L-glutamine, #FG1385, Biochrom, Berlin, Germany) supplemented with 10% (v/v) fetal calf serum (Sigma, Taufkirchen, Germany) and 0.1 mg/mL gentamicin (Life Technologies, Karlsruhe, Germany).” for “passages.”

[8] = system: human pancreatic cancer cell lines; assay: CellTiter-Blue cell viability assay, panel of pancreatic cancer cell lines; type: cell-based
Protocol: The in vitro anti-tumor activity of levormeloxifene or its pharmaceutically acceptable salt was evaluated in six human pancreatic cancer cell lines: AsPc 1 (A), BxPC3 (B), Miapaca2 (C), Panc 10.05 (D), SW1990 (E) and Panc 1 (F).
AsPc 1 (A), BxPC3 (B), Miapaca2 (C), Panc 10.05 (D), SW1990 (E) and Panc 1 (F) were established at Oncotest from the corresponding human patient derived xenograft. CAPAN-2, HUP-T3 and PA-TU-8902 were purchased from DSMZ (Braunschweig, Germany). PANC-1 was purchased from CLS Cell Line Services GmbH (Eppelheim, Germany). BxPC-3, HPAC and MIA-Pa-Ca-2 were purchased from ATCC (Rockville, Md., USA). Authenticity of cell lines was confirmed at the DSMZ by STR (short tandem repeat) analysis, a PCR based DNA-fingerprinting methodology. Cell lines were routinely passaged once or twice weekly and maintained in culture for up to 20 passages. […]
The CellTiter-Blue® Cell Viability Assay (#G8081, Promega) was used according to manufacturer's instructions. Briefly, cells were harvested from exponential phase cultures, counted and plated in 96-well flat-bottom microtiter plates at a cell density of 6,000-20,000 cells/well depending on the cell line's growth rate. […] Following an incubation period of up to four hours, fluorescence (FU) was measured by using the Enspire Multimode Plate Reader (excitation λ=531 nm, emission λ=615 nm). […]

estrogen receptor = conditions: according to literature; cited from earlier work

Row | IC50 [2] [µM] | IC50 [3] [µM] | IC50 [4] [µM] | IC50 [5] [µM] | IC50 [6] [µM] | IC50 [7] [µM] | Structure (SMILES) | half-life [1] | IC50 (HPAC cell line) [µM] | IC50 (PA-TU-8902 cell line) [µM] | difference between the most sensitive and most resistant cell line ([8]; HUP-T3 vs HPAC IC50) [fold] | activity in all cell lines tested (concentration-effect curves) ([8]; sigmoidal concentration-effect curves) | receptor affinity relative to the D-isomer (estrogen receptor)
1 | – | – | – | – | – | – | COc1ccc2c(c1)OC(C)(C)C(c1ccccc1)C2c1ccc(OCCN2CCCC2)cc1 (stereo not drawn) [Centchroman, ormeloxifene] | about 168 hours | – | – | – | – | –
2 | 22 | 24 | 24 | 21 | 18 | 27 | COc1ccc2c(c1)OC(C)(C)[C@@H](c1ccccc1)[C@@H]2c1ccc(OCCN2CCCC2)cc1 [levormeloxifene, (−)-3,4-trans-7-methoxy-2,2-dimethyl-3-phenyl-4-[4-[2-(pyrrolidin-1-yl)ethoxy]phenyl]chromane] | – | 5350 | 1030 | 7.4 | concentration-dependent activity | about 7 times
